The results in this text go back to paper PMC6925736, “Development of a HPLC-MS/MS Method to Determine the 13 Elements of Semen Cuscutae and Application to a Pharmacokinetic Study in Rats” (Evidence-based Complementary and Alternative Medicine : eCAM, 2019).

Data set [1] can be described thus: Stability of analytes in rat plasma QC samples under processing and storage conditions. Format: in vitro ADME. The settings on record: n = 6; for Measured concentration, room temperature for 4h / Measured concentration, three freeze-thaw / Measured concentration, −70°C for 21 days: rat plasma; for Measured concentration, autosampler for 12h: treated rat plasma sample. The method, then: The stability of the 13 analytes was evaluated by QC samples in different processing and storage conditions, including short-term stability (putting the analytes in ambient temperature for 4 h and storing analytes in autosampler for 12 h after treatment), long-term stability (storing the analytes at −70°C for 21 days) and subjecting analytes to three freeze-thaw cycles. All stability experiments were tested in six parallels with low, middle, and high concentrations.

The nature of data set [2]: Pharmacokinetic study in rats after oral administration of Semen Cuscutae extract (HPLC-MS/MS of plasma). It is filed as in vivo, Sprague–Dawley rats. The settings on record: oral Semen Cuscutae extract 13 g/kg; for plasma concentration after 15 minutes of intragastric administration: LLOQ 1 ng/mL. On the procedure:
20 μL of methanol, 20 μL of IS (liquiritin, 200 ng/mL) and 20 μL of formic acid were added to 100 μL of plasma sample and then vortex-mixed. The mixture was extracted with 800 μL of acetonitrile by vortexing for 3 min. After centrifugation at 14000 rpm for 10 min, the supernatant was transferred to a clean glass tube and dried with nitrogen. The residue was reconstituted in 100 μL of methanol and then centrifuged at 14000 rpm for 10 min. 5 μL of supernatant was injected into the LC–MS/MS system for analysis.
Six Sprague–Dawley rats (SPF, 200 ± 10 g, male) were purchased from HFK Laboratory Animal Technology Co., Ltd. The rats were housed in a standard laboratory condition (12 h dark-light cycle; temperature was 25°C ± 2°C and humidity was kept 50 ± 5%) and fed standard dry pellet diet and water for one week for acclimatization. Before the experiments, the rats were in fasting state for 12 h, with free access to water. The Semen Cuscutae extracts were dissolved in 0.5% carboxymethyl cellulose-sodium, prepared into suspension and gavage to the rats at a dose of 13 g/kg. Approximately 200 μL of rat blood samples was collected from the orbital venous plexus at 0, 0.03, 0.08, 0.17, 0.25, 0.5, 1, 2, 4, 6, 8, 10, 12, 24, 36, and 48 h after oral administration into 1.5 mL heparinized centrifuge tube. After centrifugation at 7000 rpm for 10 min immediately, the supernatant was collected into a new centrifuge tube and stored at −70°C until analysis.
Pharmacokinetic parameters (Cmax, t1/2, Tmax, AUC(0-tn), and AUC(0-∞)) were obtained using the software “Drug and Statistics 3.0” (DAS 3.0) (Medical College of Wannan, China).

The mark [3] stands for this setting: male, Sprague-Dawley, rat, plasma, po, 13 g/kg, n = 6.
The mark [4] stands for this setting: male, Sprague-Dawley, rat plasma, n = 6.
Where [5] appears, read: rat plasma, n = 6, listed as isoquercitrin.

Regarding `O=c1c(O)c(-c2ccc(O)cc2)oc2cc(O)cc(O)c12` [Kaempferol], in data set [1] (spiked 2 ng/mL), the “Measured concentration, room temperature for 4h” value (“Measured concentration … for 4h” below) stood at 2.2 ± 0.2 ng/mL; the “Measured concentration, three freeze-thaw” value turned out to be 2.0 ± 0.2 ng/mL; the “Measured concentration, −70°C for 21 days” value was 2.0 ± 0.1 ng/mL; the “Measured concentration, autosampler for 12h” value came to 2.1 ± 0.2 ng/mL. In data set [1] (spiked 25 ng/mL), the “Measured concentration … for 4h” value stood at 24.8 ± 0.3 ng/mL; the “Measured concentration, three freeze-thaw” value amounted to 26.2 ± 1.6 ng/mL; the “Measured concentration, −70°C for 21 days” value came out at 25.7 ± 0.8 ng/mL; the “Measured concentration, autosampler for 12h” value was 25.4 ± 2.5 ng/mL. In data set [1] (spiked 250 ng/mL), the “Measured concentration … for 4h” value was determined as 247.5 ± 6.3 ng/mL; the “Measured concentration, three freeze-thaw” value came out at 252.6 ± 7.5 ng/mL; the “Measured concentration, −70°C for 21 days” value stood at 257.2 ± 6.4 ng/mL; the “Measured concentration, autosampler for 12h” value came out at 254.0 ± 4.9 ng/mL. Further, in data set [2] (rat plasma), the “plasma concentration after 15 minutes of intragastric administration” value (“plasma concentration after 15 minutes” below) was “lower than the LLOQ”.
Consider `O=c1cc(-c2ccc(O)c(O)c2)oc2cc(O)cc(O)c12` [Luteolin], for which, in data set [1] (spiked 2 ng/mL), the “Measured concentration … for 4h” value turned out to be 2.2 ± 0.1 ng/mL; the “Measured concentration, three freeze-thaw” value was determined as 2.0 ± 0.1 ng/mL; the “Measured concentration, −70°C for 21 days” value turned out to be 2.0 ± 0.1 ng/mL; the “Measured concentration, autosampler for 12h” value is reported as 2.1 ± 0.1 ng/mL. In data set [1] (spiked 25 ng/mL), the “Measured concentration … for 4h” value is 26.5 ± 0.5 ng/mL; the “Measured concentration, three freeze-thaw” value was determined as 26.8 ± 1.6 ng/mL; the “Measured concentration, −70°C for 21 days” value turned out to be 27.4 ± 0.9 ng/mL; the “Measured concentration, autosampler for 12h” value is recorded as 25.6 ± 1.0 ng/mL. Moreover, in data set [1] (spiked 250 ng/mL), the “Measured concentration … for 4h” value came to 256.7 ± 11.5 ng/mL; the “Measured concentration, three freeze-thaw” value was determined as 261.1 ± 8.2 ng/mL; the “Measured concentration, −70°C for 21 days” value is given as 257.6 ± 5.1 ng/mL; the “Measured concentration, autosampler for 12h” value worked out at 244.9 ± 6.3 ng/mL. Moreover, the “plasma concentration after 15 minutes” value in data set [2] (rat plasma) was “lower than the LLOQ”.
`O=c1c(O)c(-c2ccc(O)c(O)c2)oc2cc(O)cc(O)c12` [Quercetin]: in data set [1] (spiked 2 ng/mL), the “Measured concentration … for 4h” value was found to be 2.2 ± 0.1 ng/mL; the “Measured concentration, three freeze-thaw” value is 2.0 ± 0.1 ng/mL; the “Measured concentration, −70°C for 21 days” value is given as 1.9 ± 0.1 ng/mL; the “Measured concentration, autosampler for 12h” value is reported as 2.3 ± 0.1 ng/mL. Moreover, in data set [1] (spiked 25 ng/mL), the “Measured concentration … for 4h” value amounted to 26.2 ± 0.7 ng/mL; the “Measured concentration, three freeze-thaw” value is listed as 27.3 ± 0.6 ng/mL; the “Measured concentration, −70°C for 21 days” value was found to be 25.6 ± 0.9 ng/mL; the “Measured concentration, autosampler for 12h” value was 26.6 ± 0.7 ng/mL. Moreover, in data set [1] (spiked 250 ng/mL), the “Measured concentration … for 4h” value turned out to be 254.9 ± 11.8 ng/mL; the “Measured concentration, three freeze-thaw” value is given as 253.2 ± 5.0 ng/mL; the “Measured concentration, −70°C for 21 days” value is recorded as 260.0 ± 6.2 ng/mL; the “Measured concentration, autosampler for 12h” value was 245.3 ± 11.6 ng/mL. Moreover, in data set [2] (rat plasma), the “plasma concentration after 15 minutes” value is reported as “lower than the LLOQ”.
Take `C[C@@H]1O[C@@H](Oc2c(-c3ccc(O)c(O)c3)oc3cc(O)cc(O)c3c2=O)[C@H](O)[C@H](O)[C@H]1O` [Quercitrin]: in data set [1] (spiked 2 ng/mL), the “Measured concentration … for 4h” value worked out at 2.1 ± 0.1 ng/mL; the “Measured concentration, three freeze-thaw” value turned out to be 2.3 ± 0.1 ng/mL; the “Measured concentration, −70°C for 21 days” value is recorded as 2.0 ± 0.1 ng/mL; the “Measured concentration, autosampler for 12h” value was 2.1 ± 0.1 ng/mL. For the same compound, in data set [1] (spiked 25 ng/mL), the “Measured concentration … for 4h” value stood at 26.3 ± 0.7 ng/mL; the “Measured concentration, three freeze-thaw” value is listed as 26.9 ± 1.5 ng/mL; the “Measured concentration, −70°C for 21 days” value is listed as 26.5 ± 0.5 ng/mL; the “Measured concentration, autosampler for 12h” value stood at 26.4 ± 0.9 ng/mL. For the same compound, in data set [1] (spiked 250 ng/mL), the “Measured concentration … for 4h” value was found to be 252.5 ± 9.1 ng/mL; the “Measured concentration, three freeze-thaw” value came out at 261.4 ± 10.3 ng/mL; the “Measured concentration, −70°C for 21 days” value is 247.9 ± 5.3 ng/mL; the “Measured concentration, autosampler for 12h” value was found to be 253.1 ± 4.7 ng/mL. Besides, the “plasma concentration after 15 minutes” value in data set [2] (rat plasma) was “lower than the LLOQ”.
In general, Tmax refers to the time at which the peak concentration occurs. Broadly, the half-life is how long it takes for the measured level to halve. As usually defined, the AUC(0-inf) is total exposure, with the tail of the curve extrapolated. A low value points to low exposure. By Cmax is commonly meant the highest concentration seen after dosing. The AUC is concentration integrated over time. `C[C@@H]1O[C@@H](OC[C@H]2O[C@@H](Oc3c(-c4ccc(O)c(O)c4)oc4cc(O)cc(O)c4c3=O)[C@H](O)[C@@H](O)[C@@H]2O)[C@H](O)[C@H](O)[C@H]1O` [Rutin]: in data set [1] (spiked 4 ng/mL), the “Measured concentration … for 4h” value is reported as 3.9 ± 0.2 ng/mL; the “Measured concentration, three freeze-thaw” value came out at 4.0 ± 0.1 ng/mL; the “Measured concentration, −70°C for 21 days” value was determined as 4.0 ± 0.1 ng/mL; the “Measured concentration, autosampler for 12h” value is 4.0 ± 0.2 ng/mL. For the same compound, in data set [1] (spiked 50 ng/mL), the “Measured concentration … for 4h” value was found to be 56.3 ± 2.3 ng/mL; the “Measured concentration, three freeze-thaw” value is given as 57.7 ± 1.0 ng/mL; the “Measured concentration, −70°C for 21 days” value is 52.7 ± 3.9 ng/mL; the “Measured concentration, autosampler for 12h” value amounted to 49.8 ± 2.7 ng/mL. Besides, in data set [1] (spiked 500 ng/mL), the “Measured concentration … for 4h” value came out at 505.7 ± 13.0 ng/mL; the “Measured concentration, three freeze-thaw” value is 513.1 ± 7.4 ng/mL; the “Measured concentration, −70°C for 21 days” value turned out to be 494.4 ± 8.8 ng/mL; the “Measured concentration, autosampler for 12h” value amounted to 489.3 ± 14.2 ng/mL. In data set [2] (setting [3]), the Tmax stood at 10 ± 0.03 h and the half-life is more than 7.5 h. In data set [2] (setting [4]), this compound came in with a total exposure AUC(0-inf) of 4790 ± 2240 ng·h/mL and a Cmax of 158 ± 84.1 ng/mL. Besides, in data set [2] (male, Sprague-Dawley, rat plasma, n = 6, read-out: AUC(0-tn)), the exposure (AUC) was determined as 4460 ± 2270 ng·h/mL. In data set [2] (rat plasma, n = 6), the C max result was “higher than that of other components” and the “t 1/2” value was 7.70 ± 0.90 h.
For Isoquercitrin, in data set [1] (spiked 2 ng/mL), the “Measured concentration … for 4h” value turned out to be 1.8 ± 0.2 ng/mL; the “Measured concentration, three freeze-thaw” value was determined as 2.1 ± 0.1 ng/mL; the “Measured concentration, −70°C for 21 days” value is recorded as 1.9 ± 0.1 ng/mL; the “Measured concentration, autosampler for 12h” value is reported as 1.9 ± 0.1 ng/mL. In addition, in data set [1] (spiked 25 ng/mL), the “Measured concentration … for 4h” value is reported as 22.8 ± 1.4 ng/mL; the “Measured concentration, three freeze-thaw” value amounted to 26.2 ± 1.8 ng/mL; the “Measured concentration, −70°C for 21 days” value was 25.9 ± 1.8 ng/mL; the “Measured concentration, autosampler for 12h” value was determined as 24.0 ± 0.5 ng/mL. In data set [1] (spiked 250 ng/mL), the “Measured concentration … for 4h” value stood at 247.2 ± 14.7 ng/mL; the “Measured concentration, three freeze-thaw” value came out at 248.9 ± 5.1 ng/mL; the “Measured concentration, −70°C for 21 days” value is listed as 263.6 ± 10.2 ng/mL; the “Measured concentration, autosampler for 12h” value is recorded as 238.3 ± 7.2 ng/mL. Moreover, in data set [2] (rat plasma, n = 6), the “AUC(0-tn)” value amounted to 838.79 ± 518.04 ng·h/mL, the “AUC(0-∞)” value was found to be 949.49 ± 594.15 ng·h/mL, the C max came to 52.61 ± 7.55 ng/mL and the T max is given as 0.21 ± 0.07 h. The “t 1/2” value in data set [2] (rat plasma, n = 6) is listed as 0.49 ± 0.05 h. Also, in data set [2] (setting [5]), the T max result is listed as “less than 1 h” and the “t 1/2” value is on record as “less than 1.5 h”.
